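Grown in 96-well plates, cells were treated for 48 hours with each compound at five concentrations. Insufficient inhibition: endpoint recorded as highest concentration tested. Abbreviation: GI50, concentration required for 50% inhibition of growth.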 Calls of active or inactive are those of the source. No stated cut-off is given here; in the data, active = GI50 up to about 1.1 µM and inactive = higher.
Legend:
Experiment in all cases: NCI tumour cell line growth inhibition, 48 h
786-0 = system: 786-0
CCRF-CEM = system: CCRF-CEM
HCC 2998 = system: HCC 2998
HCT-116 = system: HCT-116
HOP-92 = system: HOP-92
HT-29 = system: HT-29
IGROV-1 = system: IGROV-1
KM12 = system: KM12
LOX IMVI = system: LOX IMVI
M14 = system: M14
MOLT-4 = system: MOLT-4
NCI-H23 = system: NCI-H23
NCI-H522 = system: NCI-H522
OVCAR-8 = system: OVCAR-8
SF-295 = system: SF-295
TK-10 = system: TK-10
UACC-62 = system: UACC-62
EKVX = system: EKVX
A498 = system: A498

Measured: GI50

Nc1c(Br)c(=O)[nH]c(=O)n1COCCO
inactive: 786-0 > 100 µM | CCRF-CEM > 100 µM | HCC 2998 > 100 µM | HCT-116 > 100 µM | HOP-92 > 100 µM | HT-29 > 100 µM | IGROV-1 > 100 µM | KM12 > 100 µM | LOX IMVI > 100 µM | M14 > 100 µM | MOLT-4 > 100 µM | NCI-H23 > 100 µM | NCI-H522 > 100 µM | OVCAR-8 > 100 µM | SF-295 > 100 µM | TK-10 > 100 µM | UACC-62 > 100 µM

O=c1[nH]c(=O)n(C2CC(O)C(CO)O2)cc1C#Cc1c(F)c(F)c(F)c(F)c1F (centres undefined)
inactive: 786-0 > 100 µM | CCRF-CEM > 100 µM | EKVX > 100 µM | HCC 2998 > 100 µM | HCT-116 > 100 µM | HT-29 > 100 µM | KM12 > 100 µM | LOX IMVI > 100 µM | M14 > 100 µM | MOLT-4 > 100 µM | NCI-H23 > 100 µM | NCI-H522 > 10 µM | OVCAR-8 > 100 µM | SF-295 > 100 µM | UACC-62 > 100 µM

COc1nc2c(OC)cccc2c(OC)c1C=O
inactive: 786-0 > 100 µM | CCRF-CEM > 100 µM | EKVX > 100 µM | HCT-116 76.7 µM | HT-29 > 100 µM | IGROV-1 > 100 µM | KM12 75.5 µM | LOX IMVI > 100 µM | M14 > 100 µM | MOLT-4 61.5 µM | NCI-H23 > 100 µM | NCI-H522 > 100 µM | OVCAR-8 > 100 µM | SF-295 > 100 µM | TK-10 > 100 µM | UACC-62 > 100 µM

CC(C)(C)CC(C)(C)c1cc2c(O)c(c1)Cc1cc(C(C)(C)CC(C)(C)C)cc(c1O)Cc1cc(C(C)(C)CC(C)(C)C)cc(c1O)Cc1cc(C(C)(C)CC(C)(C)C)cc(c1O)Cc1cc(C(C)(C)CC(C)(C)C)cc(c1O)C2
inactive: 786-0 > 100 µM | CCRF-CEM > 100 µM | EKVX > 100 µM | HCC 2998 > 100 µM | HCT-116 > 100 µM | HOP-92 > 100 µM | HT-29 > 100 µM | IGROV-1 > 100 µM | KM12 > 100 µM | M14 > 100 µM | MOLT-4 > 100 µM | NCI-H23 > 100 µM | NCI-H522 > 100 µM | OVCAR-8 > 100 µM | SF-295 > 100 µM | TK-10 > 100 µM | UACC-62 > 100 µM

CN(C)C=C1C(Cl)=C(C=O)CC(C=O)=C1Cl
inactive: 786-0 11.8 µM | CCRF-CEM 2.5 µM | EKVX 22.4 µM | HCC 2998 15.2 µM | HOP-92 4.2 µM | HT-29 14 µM | IGROV-1 16.1 µM | KM12 6.46 µM | LOX IMVI 2.19 µM | M14 12.2 µM | MOLT-4 2.54 µM | NCI-H23 14.6 µM | NCI-H522 1.86 µM | OVCAR-8 3.13 µM | SF-295 18.3 µM | TK-10 16.7 µM | UACC-62 15.1 µM

Cc1ccc(C)c(N2C(=O)C(=O)C(c3nc4ccccc4s3)/C(=N/N)C2=O)c1 (centres undefined)
inactive: 786-0 > 100 µM | CCRF-CEM > 100 µM | EKVX > 100 µM | HCC 2998 > 100 µM | HCT-116 > 34.4 µM | HOP-92 > 100 µM | HT-29 > 100 µM | IGROV-1 > 100 µM | KM12 > 100 µM | LOX IMVI > 100 µM | M14 > 100 µM | MOLT-4 > 100 µM | NCI-H23 > 80.5 µM | NCI-H522 > 100 µM | TK-10 > 100 µM | UACC-62 > 100 µM

COC(=O)C12C3C=CC(O3)C1C1C=CC2O1 (centres undefined)
inactive: 786-0 > 100 µM | CCRF-CEM > 100 µM | EKVX > 100 µM | HCC 2998 > 100 µM | HOP-92 > 100 µM | HT-29 > 100 µM | IGROV-1 > 100 µM | KM12 > 100 µM | M14 > 100 µM | MOLT-4 > 100 µM | NCI-H23 > 100 µM | NCI-H522 > 100 µM | OVCAR-8 > 100 µM | SF-295 > 100 µM | TK-10 > 100 µM

O=C1Nc2cccc3ncn(c23)C2=C1CCCC2
inactive: 786-0 > 100 µM | CCRF-CEM > 100 µM | EKVX > 100 µM | HCC 2998 > 100 µM | HCT-116 > 100 µM | IGROV-1 > 100 µM | KM12 > 100 µM | LOX IMVI > 100 µM | MOLT-4 > 100 µM | NCI-H23 > 100 µM | NCI-H522 > 100 µM | OVCAR-8 > 100 µM | SF-295 > 100 µM | TK-10 > 100 µM | UACC-62 > 100 µM

COc1ccc2c(c1)CCCC1C3=NCCC3(C)CSC21 (centres undefined)
inactive: 786-0 70.3 µM | CCRF-CEM 70.3 µM | HCT-116 37.5 µM | HT-29 32.4 µM | IGROV-1 > 100 µM | KM12 > 100 µM | LOX IMVI 30.2 µM | M14 37.4 µM | MOLT-4 32.6 µM | NCI-H23 47.3 µM | NCI-H522 86.9 µM | OVCAR-8 59.7 µM | SF-295 86.9 µM | TK-10 70.8 µM | UACC-62 55 µM

OCC(O)C(O)c1nn(-c2ccccc2)c2nc3cc(Cl)c(Cl)cc3nc12 (centres undefined)
inactive: 786-0 18.8 µM | CCRF-CEM 35.2 µM | EKVX 26.2 µM | HCC 2998 31.9 µM | HCT-116 16.8 µM | HOP-92 35.7 µM | HT-29 21.9 µM | IGROV-1 24.6 µM | KM12 20.8 µM | LOX IMVI 19.5 µM | M14 27.9 µM | MOLT-4 13.7 µM | NCI-H23 41.5 µM | NCI-H522 26.1 µM | OVCAR-8 20.4 µM | SF-295 31.4 µM | TK-10 16.7 µM | UACC-62 29.4 µM

CC[P+]1(CC)CCCC1
inactive: 786-0 > 100 µM | A498 > 10 µM | CCRF-CEM > 100 µM | EKVX > 100 µM | HCC 2998 > 100 µM | HT-29 > 100 µM | IGROV-1 > 100 µM | KM12 > 100 µM | LOX IMVI > 100 µM | M14 > 100 µM | MOLT-4 > 100 µM | NCI-H23 > 100 µM | OVCAR-8 > 100 µM | SF-295 > 100 µM | TK-10 > 100 µM | UACC-62 > 100 µM

COC1CC(O[C@H]2CC[C@@]3(C)C(=CCC4(O)C3CCC35C(=O)OC6(C)O[C@@]43CCC65)C2)OC(C)C1O (some centres undefined)
inactive: 786-0 > 100 µM | A498 > 100 µM | CCRF-CEM > 100 µM | EKVX > 100 µM | HCC 2998 > 100 µM | HCT-116 > 100 µM | HT-29 > 100 µM | IGROV-1 > 100 µM | KM12 > 100 µM | M14 > 100 µM | MOLT-4 > 100 µM | NCI-H23 > 100 µM | NCI-H522 > 100 µM | OVCAR-8 > 100 µM | SF-295 > 100 µM | TK-10 > 100 µM | UACC-62 > 100 µM

Reference: ChEMBL document CHEMBL1201862, “PubChem BioAssay data set” (2004)
